Test results from the NIST ThermoML archive (doi:10.1016/j.jct.2018.04.005).
± gives the expanded uncertainty stated by the source.

Legend:
[1] = 100 kPa, Liquid, Vibrating tube method
[2] = xn = mol fraction of the nth substance listed; settings: 100 kPa, Liquid, Vibrating tube method

CCCCn1cc[n+](C)c1.F[B-](F)(F)F [1-butyl-3-methylimidazolium tetrafluoroborate]
[1]
Settings	mass density [kg/m3]
293.15 K	1202.47 ± 4
298.15 K	1200.1 ± 4
303.15 K	1195.48 ± 4
308.15 K	1191.65 ± 4
313.15 K	1187.83 ± 4
318.15 K	1184.13 ± 4
323.15 K	1180.33 ± 4

COC(=O)OC [dimethyl carbonate]
[1]
Settings	mass density [kg/m3]
293.15 K	1069.83 ± 4
298.15 K	1063.25 ± 4
303.15 K	1056.63 ± 4
308.15 K	1050.08 ± 4
313.15 K	1043.44 ± 4
318.15 K	1036.62 ± 4
323.15 K	1029.88 ± 4

COC(=O)OC [dimethyl carbonate] + CCCCn1cc[n+](C)c1.F[P-](F)(F)(F)(F)F
[2], x2 = 0
Settings	mass density [kg/m3]
293.15 K	1069.83 ± 4
298.15 K	1063.25 ± 4
303.15 K	1056.63 ± 4
308.15 K	1050.08 ± 4
313.15 K	1043.44 ± 4
318.15 K	1036.62 ± 4
323.15 K	1029.88 ± 4

CCCC[n+]1ccn(C)c1.O=S(=O)([N-]S(=O)(=O)C(F)(F)F)C(F)(F)F
[1]
Settings	mass density [kg/m3]
293.15 K	1442.3 ± 4
298.15 K	1435.96 ± 4
303.15 K	1431.96 ± 4
308.15 K	1427.23 ± 4
313.15 K	1422.19 ± 4
318.15 K	1417.89 ± 4
323.15 K	1412.96 ± 4

CCCCn1cc[n+](C)c1.F[P-](F)(F)(F)(F)F [1-butyl-3-methylimidazolium hexafluorophosphate] + COC(=O)OC
mass density [kg/m3], [2]
Settings	x1 = 0.034	x1 = 0.0734	x1 = 0.1196	x1 = 0.1744	x1 = 0.2407	x1 = 0.3222	x1 = 0.4251	x1 = 0.559	x1 = 0.7404	x1 = 1
293.15 K	1099.2 ± 16	1128.63 ± 15	1159.82 ± 13	1189.04 ± 11	1220.08 ± 9.1	1249.42 ± 7.5	1278.97 ± 6.4	1308.93 ± 5.6	1339.9 ± 4.9	1370.73 ± 4
298.15 K	1092.76 ± 17	1122.91 ± 15	1154.74 ± 13	1183.63 ± 11	1214.03 ± 9.1	1244.28 ± 7.6	1274.43 ± 6.4	1303.88 ± 5.5	1335.38 ± 4.9	1366.5 ± 4
303.15 K	1086.29 ± 17	1116.15 ± 15	1148.32 ± 13	1177.52 ± 11	1208.51 ± 9.2	1238.99 ± 7.7	1269.31 ± 6.4	1298.92 ± 5.5	1330.3 ± 4.9	1361.63 ± 4
308.15 K	1080.03 ± 17	1110.74 ± 15	1142.49 ± 13	1173.19 ± 11	1203.38 ± 9.2	1234.34 ± 7.8	1265.31 ± 6.5	1295.41 ± 5.6	1327.51 ± 4.9	1359.45 ± 4
313.15 K	1073.79 ± 17	1104.95 ± 15	1136.01 ± 13	1167.14 ± 11	1197.82 ± 9.2	1229.08 ± 7.8	1260.15 ± 6.5	1290.91 ± 5.6	1322.98 ± 4.9	1355.23 ± 4
318.15 K	1067.23 ± 17	1098.5 ± 15	1130.22 ± 13	1161.77 ± 11	1192.91 ± 9.3	1224.39 ± 7.8	1255.4 ± 6.6	1286.76 ± 5.7	1318.91 ± 5	1351.63 ± 4
323.15 K	1060.39 ± 17	1092.27 ± 16	1125.56 ± 13	1156.96 ± 11	1187.95 ± 9.3	1219.55 ± 7.9	1250.82 ± 6.6	1282.14 ± 5.7	1314.13 ± 5	1347.23 ± 4

CCCCn1cc[n+](C)c1.F[P-](F)(F)(F)(F)F [1-butyl-3-methylimidazolium hexafluorophosphate]
[1]
Settings	mass density [kg/m3]
293.15 K	1370.73 ± 4
298.15 K	1366.5 ± 4
303.15 K	1361.63 ± 4
308.15 K	1359.45 ± 4
313.15 K	1355.23 ± 4
318.15 K	1351.63 ± 4
323.15 K	1347.23 ± 4
